Results: US7625713B2, “Process for identifying a ligand that binds to the NEP binding site for the SMR1 pentapeptide” (Institut Pasteur, priority 2000, dated 2009)
Where a SMILES comes first, the peptide text is derived from it.

Key:
Chelating-FPLC analyses = assay type: physicochemical
Text: Otherwise, tissue-uptake of the sialorphin peptide involves a complex molecular species, including a cation mineral element, as the peptide was only recovered in the presence of a strong divalent metal ion chelating agent (Rougeot, C. et al. (1997), American Journal of Physiology 273, […]-20). […] The zinc ion, an essential component of the NEP catalytic site, is a common target of synthetic potent NEP inhibitors described elsewhere.

NEP = target: T1, NEP (Rattus norvegicus, UniProt P07861); experiment: Met-enkephalinase activity of rat spinal cord slices, Met-enkephalin RIA; assay type: biochemical; conditions: 10 μM, fresh spinal cord tissue, 20 min at 25° C.
T1 construct: incubations of membrane and fresh tissue slice preparations from nervous tissues; from tissue; host or cells: dorsal spinal cord of male Wistar rats (fresh slices or 100 000 x g membrane fraction)
T1 sequence (P07861 1-750): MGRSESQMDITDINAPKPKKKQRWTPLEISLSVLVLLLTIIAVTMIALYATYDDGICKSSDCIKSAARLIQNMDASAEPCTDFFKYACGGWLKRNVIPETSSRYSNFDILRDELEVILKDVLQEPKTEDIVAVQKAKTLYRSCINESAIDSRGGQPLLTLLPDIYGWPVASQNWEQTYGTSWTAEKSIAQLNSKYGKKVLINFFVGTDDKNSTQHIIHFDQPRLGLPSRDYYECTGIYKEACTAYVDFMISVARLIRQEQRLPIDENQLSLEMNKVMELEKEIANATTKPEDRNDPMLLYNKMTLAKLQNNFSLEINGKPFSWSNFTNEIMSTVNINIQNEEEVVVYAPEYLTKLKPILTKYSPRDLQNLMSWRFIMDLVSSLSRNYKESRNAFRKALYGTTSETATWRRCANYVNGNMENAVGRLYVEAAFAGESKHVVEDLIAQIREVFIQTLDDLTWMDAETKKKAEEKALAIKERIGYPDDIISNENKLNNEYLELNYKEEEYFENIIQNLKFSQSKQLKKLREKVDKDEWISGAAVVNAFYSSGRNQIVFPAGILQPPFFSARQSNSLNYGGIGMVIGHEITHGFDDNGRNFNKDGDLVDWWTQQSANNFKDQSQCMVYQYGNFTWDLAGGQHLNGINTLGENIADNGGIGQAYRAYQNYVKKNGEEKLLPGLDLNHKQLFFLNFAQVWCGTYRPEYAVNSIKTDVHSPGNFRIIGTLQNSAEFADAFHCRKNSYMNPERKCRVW
Experimental: FIG. 2-A: […] The organs are rapidly removed, dissected on ice, freed of nerve fibers and of adipose tissues and then washed in cold oxygenated glucose- and bicarbonate-containing Krebs Ringer (KRBG) solution, whose composition is the following: 120 mM NaCl-5 mM KCl-1.2 mM KH2PO4-27.5 mM NaHCO3-2.6 mM CaCl2-0.67 mM MgSO4-5.9 mM glucose. The slices of tissues are prepared either manually with the aid of a scalpel (1-2 mm thick), or mechanically with the aid of a “Tissue Chopper” (1 mm thick). Slices are then dispersed into reaction tubes where they are subjected to three successive washes in ice-cold oxygenated KRBG. […] For the experiments of analysis of the NEP peptidase activity, an ex vivo model using incubations of membrane and fresh tissue slice preparations from nervous tissues that are known to be appropriate for exploring NEP peptidase activity: i.e. the dorsal zone of rat spinal cord, was first developed. The metabolism rate of the NEP-sensitive peptides was measured using the both NEP substrates involved in the signaling of the nociceptive response: the neuropeptides Met-enkephalin and Substance P. […] (NEN, 12.5-25 nM) were used. The objective was to measure the NEP-specific endoproteolysis of these substrates. […] Furthermore, for studying the functional role of […] NO: 2), the reaction was carried out in the presence of the SMR1-peptide alone or combined with specific inhibitors of membrane peptidases which could inactivate the […] […] Herein, a competitive RIA system has been used: the quantity of radioactive antigen bound to the antibody decreases in a manner inversely proportional to the quantity of antigen contained in the standard solution or in the sample. […] The activity of enkephalinase NEP is monitored by quantification of the disappearance of the initial Met-enkephalin substrate. […] The radiolabeled antigen is iodinated Met-enkephalin (^125I-Met-Enk enkephalin) with a specific radioactivity estimated at 3000 Ci/mmol. […] After centrifugation, the bound radioactivity of the precipitate is quantified using a gamma-spectrometer.

N=C(N)NCCC[C@H](NC(=O)[C@@H]1CCCN1C(=O)[C@H](CC(N)=O)NC(=O)[C@H](Cc1c[nH]cn1)NC(=O)[C@@H](N)CCC(N)=O)C(=O)O [sialorphin, Gln-His-Asn-Pro-Arg] (H-QHNPR-OH; N-terminus and C-terminus assumed)
zinc-chelating property (Chelating-FPLC analyses): selective and strong zinc-chelating group
protection of Met-enkephalin from degradation (NEP): 96%
